Results taken from US20240376097A1, “BCL-2 Inhibitor” (BeiGene Ltd., priority 2020, published 2024).
Read-outs that look alike come from different tables or passages of the source.

Columns and labels:
[1] = molecular target: Recombinant human Bcl-2 protein (Homo sapiens (Human), UniProt P10415); assay: Bcl-2 TR-FRET Assay; assay type: binding
In short: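 0.05 nM Bcl-2 pre-incubated 0.5 h at room temperature with 10-point compound dilutions (top final 1, 0.1, 0.02 or 0.01 uM) in 20 mM potassium phosphate pH 7.5, 50 mM NaCl, 1 mM EDTA, 0.05% Tween-20, 0.01% BSA; FITC-Bak peptide (0.5 nM) and anti-6His Tb cryptate added, 1 h. IC50 from four-parameter logistic fit.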

[2] = molecular target: recombinant human Bcl-2-G101V protein (Homo sapiens (Human), UniProt P10415, G101V); assay: Bcl-2-G101V TR-FRET Assay; assay type: binding; conditions: Bcl-2 G101V mutant, TR-FRET; read-out: Biochemical assay (IC50, nM) Bcl-2 G101V
In short: (§1)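 Ex337/em490 & 520 nm TR-FRET; % inhibition of Bcl-2-G101V–ligand interaction from 490:520 ratio vs. increasing compound conc.; IC50 by 4-parameter logistic fit.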

[3] = system: recombinant human Bcl-2-G101V protein; assay: Bcl-2-G101V TR-FRET Assay; assay type: binding; conditions: ratio of biochemical IC50 Bcl-2 G101V / Bcl-2 WT
In short: as §1

[4] = molecular target: recombinant human Bcl-2 D103Y protein (Homo sapiens (Human), UniProt P10415, D103Y); assay: Bcl-2-D103Y Biochemical Assay (TR-FRET); assay type: binding; conditions: for IC50: TR-FRET, FITC labeled Bak peptide; for Ratio of Bcl-2 D103Y/Bcl-2 WT: ratio of IC50
In short: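 Recombinant human Bcl-2 D103Y binding to its ligand measured by TR-FRET (ex 337 nm, em 490/520 nm) with increasing compound concentrations. Percent inhibition from the 490/520 nm ratio; IC50 from four-parameter logistic fit.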

[5] = system: BCL-2 G101V knock-in cell line H96 (derive from RS4;11); assay: Bcl 2-G101V Knock-In RS4;11 Cell Proliferation Assay; assay type: cell-based; conditions: Homo sapiens, RS4;11 Bcl-2 G101V knock-in clone H96, 48 hrs, CellTiter-GLO, read-out: Cellular proliferation assay (IC50, nM) RS4
In short: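 H96, a CRISPR-generated RS4;11 clone carrying BCL2-G101V knock-in (WES/RNA-seq validated), seeded 50,000 per well and exposed 48 h at 37 °C to 10-point dilutions topping at 1 or 10 μM. Viability by CellTiter-Glo luminescence; mean IC50.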

[6] = system: RS4;11 (BCL-2 dependent acute lymphoblastic leukemia cell line); assay: RS4;11 Cell Proliferation Assay; assay type: cell-based; conditions: Homo sapiens, RS4-11, RS4;11 cells, read-out: Cellular proliferation assay (IC50, nM) RS4
In short: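 RS4;11 cells, 50,000 per well in RPMI-1640 with 10% FBS, treated 48 h at 37 °C with a 10-point dilution series topping at 1 μM. Viability read by CellTiter-Glo ATP luminescence; mean IC50 reported.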

[7] = Bcl-2 wild type, TR-FRET, read-out: Biochemical assay (IC50, nM) Bcl-2 WT
[8] = wild type Bcl-2, unit inferred, read-out: Bcl-2 WT

Row | Structure (SMILES) | IC50 [1, 7] [nM] | IC50 [1, 8] [nM] | IC50 [2] [nM] | Ratio of Bcl-2 G101V/WT [3] | IC50 [4] [nM] | Ratio of Bcl-2 D103Y/Bcl-2 WT [4] | IC50 [5] [nM] | IC50 [6] [nM]
1 | CC(C)c1ccccc1C1CN(Cc2cnn(C3CC3)c2)CCN1C1CC2(CCN(c3ccc(C(=O)NS(=O)(=O)c4ccc(NC[C@H]5CC[C@](C)(O)CC5)c([N+](=O)[O-])c4)c(Oc4cnc5[nH]ccc5c4)c3)CC2)C1 (stereo partly drawn) [Example 70, 2-((1H-pyrrolo[2,3-b]pyridin-5-yl)oxy)-4-(2-(4-((1-cyclopropyl-1H-pyrazol-4-yl)methyl)-2-(2-isopropylphenyl)piperazin-1-yl)-7-azaspiro[3.5]nonan-7-yl)-N-((4-((((1r,4r)-4-hydroxy-4-methylcyclohexyl)methyl)amino)-3-nitrophenyl)sulfonyl)benzamide] | 0.014 | 0.014 | 0.13 | 9 | 0.1 | 7.1 | 1.5 | 0.38
2 | COc1ccc(CN2CCN(C3CC4(C3)CN(c3ccc(C(=O)NS(=O)(=O)c5ccc(NC[C@H]6CC[C@](C)(O)CC6)c([N+](=O)[O-])c5)c(Oc5cnc6[nH]cc(Cl)c6c5)c3)C4)[C@H](c3ccccc3C(C)C)C2)cc1OC [Example 164, 2-((3-chloro-1H-pyrrolo[2,3-b]pyridin-5-yl)oxy)-4-(6-((R)-4-(3,4-dimethoxybenzyl)-2-(2-isopropylphenyl)piperazin-1-yl)-2-azaspiro[3.3]heptan-2-yl)-N-((4-((((1r,4r)-4-hydroxy-4-methylcyclohexyl)methyl)amino)-3-nitrophenyl)sulfonyl)benzamide] | 0.12 | 0.12 | 0.35 | 3 | 0.12 | 1 | 0.82 | 0.23
3 | COc1cc(CN2CCN(C3CC4(C3)CN(c3ccc(C(=O)NS(=O)(=O)c5ccc(NC[C@H]6CC[C@](C)(O)CC6)c([N+](=O)[O-])c5)c(Oc5cnc6[nH]cc(F)c6c5)c3)C4)[C@H](c3ccccc3C(C)C)C2)cc2c1OCCCC2 [Example 347, 2-((3-fluoro-1H-pyrrolo[2,3-b]pyridin-5-yl)oxy)-N-((4-((((1r,4r)-4-hydroxy-4-methylcyclohexyl)methyl)amino)-3-nitrophenyl)sulfonyl)-4-(6-((R)-2-(2-isopropylphenyl)-4-((9-methoxy-2,3,4,5-tetrahydrobenzo[b]oxepin-7-yl)methyl)piperazin-1-yl)-2-azaspiro[3.3]heptan-2-yl) benzamide] | 0.2 | 0.2 | 0.47 | 2.3 | 0.28 | 1.4 | 0.34 | 0.13
4 | COc1cc(CN2CCN(C3CC4(C3)CN(c3ccc(C(=O)NS(=O)(=O)c5ccc(NCC6CCOCC6)c([N+](=O)[O-])c5)c(Oc5cnc6[nH]cc(F)c6c5)c3)C4)[C@H](c3ccccc3C(C)C)C2)ccc1C1CC1 [Example 320, (R)-4-(6-(4-(4-cyclopropyl-3-methoxybenzyl)-2-(2-isopropylphenyl)piperazin-1-yl)-2-azaspiro[3.3]heptan-2-yl)-2-((3-fluoro-1H-pyrrolo[2,3-b]pyridin-5-yl)oxy)-N-((3-nitro-4-(((tetrahydro-2H-pyran-4-yl)methyl)amino)phenyl)sulfonyl) benzamide] | 0.55 | 0.55 | 1.7 | 3.1 | 0.52 | 0.93 | 0.47 | 0.19
5 | COc1ccc(CN2CCN(C3CC4(CCN(c5ccc(C(=O)NS(=O)(=O)c6ccc(NC[C@H]7CC[C@](C)(O)CC7)c([N+](=O)[O-])c6)c(Oc6cnc7[nH]ccc7c6)c5)CC4)C3)C(c3ccccc3C(C)C)C2)nc1OC (stereo partly drawn) [Example 194, 2-((1H-pyrrolo[2,3-b]pyridin-5-yl)oxy)-4-(2-(4-((5,6-dimethoxypyridin-2-yl)methyl)-2-(2-isopropylphenyl)piperazin-1-yl)-7-azaspiro[3.5]nonan-7-yl)-N-((4-((((1r,4r)-4-hydroxy-4-methylcyclohexyl)methyl)amino)-3-nitrophenyl)sulfonyl)benzamide] | 0.051 | 0.051 | 0.16 | 3.1 | 0.072 | 1.4 | 0.82 | 0.3
6 | COc1cc(CN2CCN(C3CC4(C3)CN(c3ccc(C(=O)NS(=O)(=O)c5ccc(NC[C@H]6CC[C@](C)(O)CC6)c([N+](=O)[O-])c5)c(Oc5cnc6[nH]ccc6c5)c3)C4)[C@H](c3ccccc3C(C)C)C2)ccc1C [Example 275, 2-((1H-pyrrolo[2,3-b]pyridin-5-yl)oxy)-N-((4-((((1r,4r)-4-hydroxy-4-methylcyclohexyl)methyl)amino)-3-nitrophenyl)sulfonyl)-4-(6-((R)-2-(2-isopropylphenyl)-4-(3-methoxy-4-methylbenzyl)piperazin-1-yl)-2-azaspiro[3.3]heptan-2-yl)benzamide] | 0.27 | 0.27 | 0.54 | 2 | 0.21 | 0.76 | 0.38 | 0.14
7 | [2H]C([2H])([2H])Oc1cc(CN2CCN(C3CC4(C3)CN(c3ccc(C(=O)NS(=O)(=O)c5ccc(NC[C@H]6CC[C@](C)(O)CC6)c([N+](=O)[O-])c5)c(Oc5cnc6[nH]cc(F)c6c5)c3)C4)[C@H](c3ccccc3C(C)C)C2)cc2ccoc12 [Example 322, 2-((3-fluoro-1H-pyrrolo[2,3-b]pyridin-5-yl)oxy)-N-((4-((((1r,4r)-4-hydroxy-4-methylcyclohexyl)methyl)amino)-3-nitrophenyl)sulfonyl)-4-(6-((R)-2-(2-isopropylphenyl)-4-((7-(methoxy-d3)benzofuran-5-yl)methyl)piperazin-1-yl)-2-azaspiro[3.3]heptan-2-yl)benzamide] | 0.25 | 0.25 | 0.72 | 2.9 | 0.36 | 1.4 | 0.32 | 0.18
8 | CC(C)c1ccccc1C1CN(CC23CC(C2)C3)CCN1C1CC2(CCN(c3ccc(C(=O)NS(=O)(=O)c4ccc(NC[C@H]5CC[C@](C)(O)CC5)c([N+](=O)[O-])c4)c(Oc4cnc5[nH]ccc5c4)c3)CC2)C1 (stereo partly drawn) [Example 18, 2-((1H-pyrrolo[2,3-b]pyridin-5-yl)oxy)-4-(2-(4-(bicyclo[1.1.1]pentan-1-ylmethyl)-2-(2-isopropylphenyl)piperazin-1-yl)-7-azaspiro[3.5]nonan-7-yl)-N-((4-((((1r,4r)-4-hydroxy-4-methylcyclohexyl)methyl)amino)-3-nitrophenyl)sulfonyl)benzamide] | 0.079 | 0.079 | 0.71 | 9.0 | 0.43 | 5.4 | 4.9 | 0.61
9 | COc1cc(CN2CCN(C3CC4(C3)CN(c3ccc(C(=O)NS(=O)(=O)c5ccc(NC[C@H]6CC[C@](C)(O)CC6)c([N+](=O)[O-])c5)c(Oc5cnc6[nH]ccc6c5)c3)C4)[C@H](c3ccccc3C(C)C)C2)cc2ccoc12 [Example 307, 2-((1H-pyrrolo[2,3-b]pyridin-5-yl)oxy)-N-((4-((((1r,4r)-4-hydroxy-4-methylcyclohexyl)methyl)amino)-3-nitrophenyl)sulfonyl)-4-(6-((R)-2-(2-isopropylphenyl)-4-((7-methoxybenzofuran-5-yl)methyl)piperazin-1-yl)-2-azaspiro[3.3]heptan-2-yl)benzamide] | 0.17 | 0.17 | 0.43 | 2.5 | 0.18 | 1.1 | 0.17 | 0.11
